Calls of active or inactive are those of the source. No cut-off for these calls is given here.
Key:
U-87 MG [1] = test: Photodynamic antitumor activity against human U87 cells assessed as inhibition of cell growth incubated for 60 mins followed by compound washout and light irradiation measured after 72 hrs by MTT assay; format: functional, cell-based, U-87MG ATCC; details: light or radiation study
A549 [2] = test: Photodynamic antitumor activity against human A549 cells assessed as inhibition of cell growth incubated for 60 mins followed by compound washout and light irradiation measured after 72 hrs by MTT assay; format: functional, cell-based; details: A549, light or radiation study
[3] = target: Carbonic anhydrase 9 (Homo sapiens) (UniProt Q16790); test: Inhibition of carbonic anhydrase IX in human A549 cells assessed as downregulation of CAIX expression at 1 uM incubated for 60 mins followed by compound washout and 540 nm light irradiation measured after 15 mins by Western blotting analysis; format: cell-based
A549 [4] = test: Antitumor activity against human A549 cells assessed as inhibition of cell growth at 0.001 to 30 uM incubated for 60 mins by MTT assay; format: functional, cell-based; details: dose 0.001-30 µM
[5] = target: Carbonic anhydrase 9 (Homo sapiens) (UniProt Q16790); test: Inhibition of carbonic anhydrase IX in human U87 cells assessed as downregulation of CAIX expression at 1 uM incubated for 60 mins by Western blotting analysis; format: cell-based
U-87 MG [6] = test: Photodynamic antitumor activity against human U87 cells assessed as inhibition of cell growth at 0.001 to 30 uM incubated for 60 mins followed by compound washout and light irradiation measured after 72 hrs by MTT assay; format: functional, cell-based; details: U-87MG ATCC, dose 0.001-30 µM
A549 [7] = test: Photodynamic antitumor activity against human A549 cells assessed as inhibition of cell growth at 0.001 to 30 uM incubated for 60 mins followed by compound washout and light irradiation measured after 72 hrs by MTT assay; format: functional, cell-based; details: dose 0.001-30 µM
U-87 MG [8] = test: Antitumor activity against human U87 cells assessed as inhibition of cell growth at 0.001 to 30 uM incubated for 60 mins by MTT assay; format: functional, cell-based; details: U-87MG ATCC, dose 0.001-30 µM
[9] = target: Carbonic anhydrase 9 (Homo sapiens) (UniProt Q16790); test: Inhibition of carbonic anhydrase IX in human A549 cells assessed as downregulation of CAIX expression at 1 uM incubated for 60 mins by Western blotting analysis; format: cell-based
[10] = target: Carbonic anhydrase 9 (Homo sapiens) (UniProt Q16790); test: Inhibition of carbonic anhydrase IX in human U87 cells assessed as downregulation of CAIX expression at 1 uM incubated for 60 mins followed by compound washout and 540 nm light irradiation measured after 15 mins by Western blotting analysis; format: cell-based
U-87 MG [11] = test: Photodynamic antitumor activity against human U87 cells assessed as inhibition of cell growth at 1 uM incubated for 60 mins followed by compound washout and addition of ROS scavenger D-mannitol and light irradiation measured after 72 hrs by MTT assay; format: functional, cell-based; details: U-87MG ATCC
4T1 [12] = test: Photodynamic antitumor activity against mouse 4T1 cells implanted mouse model assessed as increase in tumor necrosis at 5 mg/kg,TOP administration followed by light irradiation measured after 12 days; format: functional, organism-based; details: time 12.0 day
[13] = target: Carbonic anhydrase 9 (Homo sapiens) (UniProt Q16790); test: Inhibition of carbonic anhydrase IX in human U87 cells assessed as nuclear localization of CAIX at 1 uM incubated for 60 mins followed by compound washout and 540 nm light irradiation measured after 15 mins by Hoechst 33342 staining based immunostaining analysis; format: cell-based
U-87 MG [14] = test: Photodynamic antitumor activity against human U87 cells assessed as increase in ATP release incubated for 1 hr followed by compound washout and 540 nm light irradiation measured upto 10 mins by luciferase assay; format: functional, cell-based; details: U-87MG ATCC
[15] = Toxicity in mouse implanted with mouse 4T1 cells assessed as change in body weight at 5 mg/kg,TOP administration followed by light irradiation measured after 12 days; format: organism-based; details: in vivo, topical_or_ocular, 288 h, time 12 day
4T1 [16] = test: Photodynamic antitumor activity against mouse 4T1 cells implanted mouse model assessed as increase in tumor degeneration at 5 mg/kg,TOP administration followed by light irradiation measured after 12 days; format: functional, organism-based; details: time 12.0 day
4T1 [17] = test: Photodynamic antitumor activity against mouse 4T1 cells implanted mouse model assessed as reduction in tumor growth at 5 mg/kg,TOP administration followed by light irradiation measured after 12 days; format: functional, organism-based; details: time 12.0 day
U-87 MG [18] = test: Photodynamic antitumor activity against human U87 cells assessed as inhibition of cell growth at 1 uM incubated for 60 mins followed by compound washout and addition of ROS scavenger Trolox and light irradiation measured after 72 hrs by MTT assay; format: functional, cell-based; details: U-87MG ATCC
[19] = target: Carbonic anhydrase 9 (Homo sapiens) (UniProt Q16790); test: Inhibition of carbonic anhydrase IX in human U87 cells assessed as downregulation of CAIX expression at 1 uM incubated for 60 mins followed by compound washout and 540 nm light irradiation measured after 15 mins by Hoechst 33342 staining based immunostaining analysis; format: cell-based
U-87 MG [20] = test: Photodynamic antitumor activity against human U87 cells assessed as inhibition of cell growth at 1 uM incubated for 60 mins followed by compound washout and addition of ROS scavenger NaP and light irradiation measured after 72 hrs by MTT assay; format: functional, cell-based; details: U-87MG ATCC
U-87 MG [21] = test: Photodynamic antitumor activity against human U87 cells assessed as inhibition of cell growth at 1 uM incubated for 60 mins followed by compound washout and addition of ROS scavenger NaN3 upto 30 uM and light irradiation measured after 72 hrs by MTT assay; format: functional, cell-based; details: U-87MG ATCC
U-87 MG [22] = test: Photodynamic antitumor activity against human U87 cells assessed as inhibition of cell growth at 1 uM incubated for 60 mins followed by compound washout and addition of ROS scavenger Tiron and light irradiation measured after 72 hrs by MTT assay; format: functional, cell-based; details: U-87MG ATCC
4T1 [23] = test: Photodynamic antitumor activity against mouse 4T1 cells implanted mouse model assessed as reduction in tumor growth at 5 mg/kg,TOP administration measured after 12 days; format: functional, organism-based; details: time 12.0 day
[24] = Toxicity in mouse implanted with mouse 4T1 cells assessed as change in body weight at 5 mg/kg,TOP administration measured after 12 days; format: organism-based; details: in vivo, topical_or_ocular, 288 h, time 12 day
U-87 MG [25] = test: Photodynamic antitumor activity against human U87 cells assessed as inhibition of cell growth at 1 uM incubated for 60 mins followed by compound washout and addition of ROS scavenger NaN3 and light irradiation measured after 72 hrs by MTT assay; format: functional, cell-based; details: U-87MG ATCC

Row | SMILES | IC50 (U-87 MG [1]) | IC50 (A549 [2]) | inhibition [3] | Activity (A549 [4]) | inhibition [5] | Activity (U-87 MG [6]) | Activity (A549 [7]) | Activity (U-87 MG [8]) | inhibition [9] | inhibition [10] | also measured
1 | Cc1c(Br)c(C)n2c1C=C1C=C(Br)C(CCC(=O)NCCCCCCNC(=O)c3ccc(S(N)(=O)=O)cc3)=[N+]1[B-]2(F)F | 0.3 µM | 0.4 µM | Active | inactive | inactive | Dose-Dependent Effect | Dose-Dependent Effect | inactive | inactive | Active | –
2 | Cc1c(I)c(C)n2c1C=C1C=C(I)C(CCC(=O)NCCCCCCNC(=O)c3ccc(S(N)(=O)=O)cc3)=[N+]1[B-]2(F)F | 0.05 µM | 0.2 µM | Active | inactive | inactive | Dose-Dependent Effect | Dose-Dependent Effect | inactive | inactive | Active | Activity (U-87 MG [11]): Active; Activity (4T1 [12]): Active; inhibition [13]: Active; Activity (U-87 MG [14]): Active; Activity [15]: Non-Toxic; Activity (4T1 [16]): Active; Activity (4T1 [17]): Active; Activity (U-87 MG [18]): Active; inhibition [19]: Active; Activity (U-87 MG [20]): Active; Activity (U-87 MG [21]): inactive; Activity (U-87 MG [22]): Active; Activity (4T1 [23]): inactive; Activity [24]: Non-Toxic; Activity (U-87 MG [25]): inactive
3 | Cc1cc(C)n2c1C=C1C=CC(CCC(=O)NCCCCCCNC(=O)c3ccc(S(N)(=O)=O)cc3)=[N+]1[B-]2(F)F | 18.9 µM | 21.3 µM | – | – | – | – | – | – | – | – | –
